Source: patent US20260217708A1, “FUSED BENZAZEPINE DERIVATIVES FOR USE IN THE TREATMENT OF CANCER AND EPILEPSY” (UCB BIOPHARMA SRL, priority 2023, published 2026)

What was measured:
system Xc^− [1] = biological target: T1, system Xc^− (Homo sapiens, UniProt Q9UPY5); test: [^14C]L-Cystine uptake assay; assay type: cell-based; design: endogenous in cells; host or cells: H4 cells; conditions: H4 cells, sodium-free HEPES buffer, 0.5 μM L-[14C]Cystine and 4.5 μM L-Cystine, 1 hour at 37° C.; for IC50: read-out: pIC50 [^14C] L-Cystine uptake assay (converted)
T1 sequence (Q9UPY5 1-501): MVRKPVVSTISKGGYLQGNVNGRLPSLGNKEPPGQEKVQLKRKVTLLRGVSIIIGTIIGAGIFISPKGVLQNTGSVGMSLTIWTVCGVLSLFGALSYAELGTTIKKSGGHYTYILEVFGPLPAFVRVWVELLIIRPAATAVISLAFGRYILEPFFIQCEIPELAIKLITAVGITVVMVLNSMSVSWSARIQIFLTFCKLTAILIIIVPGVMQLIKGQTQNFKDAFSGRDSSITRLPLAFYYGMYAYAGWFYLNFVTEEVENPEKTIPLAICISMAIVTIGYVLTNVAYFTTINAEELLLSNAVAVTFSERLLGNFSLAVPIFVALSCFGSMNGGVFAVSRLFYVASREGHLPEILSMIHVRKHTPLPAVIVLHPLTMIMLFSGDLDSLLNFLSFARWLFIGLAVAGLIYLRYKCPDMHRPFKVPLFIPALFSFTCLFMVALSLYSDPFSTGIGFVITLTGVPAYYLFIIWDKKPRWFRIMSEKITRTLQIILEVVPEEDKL
T1 sequence (P08195 1-529 partner): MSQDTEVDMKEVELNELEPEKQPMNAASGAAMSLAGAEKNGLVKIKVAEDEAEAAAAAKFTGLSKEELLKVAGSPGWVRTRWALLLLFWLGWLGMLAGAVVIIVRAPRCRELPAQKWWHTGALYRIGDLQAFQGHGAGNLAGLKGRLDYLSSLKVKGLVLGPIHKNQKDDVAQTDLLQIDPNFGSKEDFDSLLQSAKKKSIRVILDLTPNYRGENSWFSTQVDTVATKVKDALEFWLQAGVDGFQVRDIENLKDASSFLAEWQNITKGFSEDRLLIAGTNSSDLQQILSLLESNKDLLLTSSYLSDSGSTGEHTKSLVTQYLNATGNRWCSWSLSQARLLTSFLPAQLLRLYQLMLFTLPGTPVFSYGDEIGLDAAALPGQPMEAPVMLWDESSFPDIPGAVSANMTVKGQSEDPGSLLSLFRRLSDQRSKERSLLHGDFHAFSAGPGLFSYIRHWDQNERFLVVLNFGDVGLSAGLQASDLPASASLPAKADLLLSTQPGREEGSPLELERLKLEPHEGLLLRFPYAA
Outline: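 H4 cells at 5×10^4 cells/well in sodium-free HEPES buffer were preincubated 15 min with compounds (1% DMSO). Uptake of 0.5 μM [14C]L-cystine plus 4.5 μM unlabelled L-cystine ran 1 hour at 37° C on scintillating plates. IC50 was set between 1% DMSO and 50 μM Erastin controls and expressed as pIC50.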

system Xc^− [2] = biological target: T1, system Xc^−; test: Cystine-induced glutamate release assay; assay type: cell-based; design: endogenous in cells; host or cells: H4 cells; conditions: H4 cells, sodium-free HEPES buffer, 50 μM L-Cystine, 2 hours, Amplex Red glutamate readout; for IC50: read-out: pIC50 Cystine-induced glutamate release assay (converted)
Outline: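 H4 cells in sodium-free HEPES buffer (pH 7.4), 2 days after plating; glutamate release induced with 50 μM L-cystine plus compound (1% DMSO), 2 h at 37 °C. Supernatant glutamate measured by Amplex Red fluorescence; IC50/pIC50 derived between 1% DMSO and 50 μM erastin controls.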

Row | SMILES | IC50 (system Xc^− [1]) [nM] | IC50 (system Xc^− [2]) [nM] | pIC50 [^14C] L-Cystine uptake assay (system Xc^− [1]) | pIC50 Cystine-induced glutamate release assay (system Xc^− [2])
1 | Cc1cc2c(c(=O)[nH]1)-c1ccccc1[C@@H](C)C(=O)N2CC(=O)Nc1ccc(C(F)(F)F)cc1 (single isomer, unassigned) [#205, Entnaiomer (7R) or (7S) of 2-[3,7-dimethyl-1,6-dioxo-2,7-dihydropyrido[4,3-d][3]benzazepin-5-yl]-N-[4-(trifluoromethyl)phenyl]acetamide] | < 15.8 | 15.8 to 39.8 |  | 
2 | Cc1cc2c(c(Cl)n1)-c1cncnc1[C@@H](C)C(=O)N2CC(=O)Nc1ccc(C(F)(F)F)cc1 (single isomer, unassigned) [#207, Enantiomer (8S) or (8R) of 2-[15-chloro-8,13-dimethyl-9-oxo-4,6,10,14-tetrazatricyclo[9.4.0.0^2,7]pentadeca-1(11),2,4,6,12,14-hexaen-10-yl]-N-[4-(trifluoromethyl)phenyl]acetamide] | < 15.8 | 15.8 to 39.8 |  | 
3 | COc1cc2c(c(F)n1)-c1cccnc1C(C)C(=O)N2CC(=O)Nc1ccc(C(F)F)cc1 (single isomer, unassigned) [#214, Enantiomer (10S) or (10R) of N-[4-(difluoromethyl)phenyl]-2-[3-fluoro-5-methoxy-10-methyl-9-oxo-4,8,12-triazatricyclo[9.4.0.0^2,7]pentadeca-1(15),2(7),3,5,11,13-hexaen-8-yl]acetamide] |  |  | C (about 7.40 < pIC50 ≤ about 7.80) | D (plC50 > about 7.80)
4 | COc1cc2c(c(F)n1)-c1cccnc1C(C)C(=O)N2CC(=O)Nc1ccc(Cl)c(F)c1 (single isomer, unassigned) [#215, Enantiomer (10S) or (10R) of N-(4-chloro-3-fluoro-phenyl)-2-[3-fluoro-5-methoxy-10-methyl-9-oxo-4,8,12-triazatricyclo[9.4.0.0^2,7]pentadeca-1(15),2(7),3,5,11,13-hexaen-8-yl]acetamide] |  |  | C (about 7.40 < pIC50 ≤ about 7.80) | C (about 7.40 < pIC50 ≤ about 7.80)
5 | COc1cc2c(c(F)n1)-c1cccnc1C(C)C(=O)N2CC(=O)Nc1ccc(F)c(Cl)c1 (single isomer, unassigned) [#216, Enantiomer (10S) or (10R) of N-(3-chloro-4-fluoro-phenyl)-2-(3-fluoro-5-methoxy-10-methyl-9-oxo-4,8,12-triazatricyclo[9.4.0.0^2,7]pentadeca-1(11),2(7),3,5,12,14-hexaen-8-yl)acetamide] | 15.8 to 39.8 | 39.8 to 100 |  | 
6 | Cc1cc2c(c(F)n1)-c1cncnc1C(C)C(=O)N2CC(=O)Nc1ccc(Cl)c(F)c1 (single isomer, unassigned) [#217, Enantiomer (8S) or (8R) of N-(4-chloro-3-fluoro-phenyl)-2-[15-fluoro-8,13-dimethyl-9-oxo-4,6,10,14-tetrazatricyclo[9.4.0.0^2,7]pentadeca-1(15),2,4,6,11,13-hexaen-10-yl]acetamide] | < 15.8 | < 15.8 |  | 
7 | Cc1cc2c(c(F)n1)-c1cncnc1C(C)C(=O)N2CC(=O)Nc1ccc(C(F)F)cc1 (single isomer, unassigned) [#218, Enantiomer (8S) or (8S) of (N-[4-(difluoromethyl)phenyl]-2-[15-fluoro-8,13-dimethyl-9-oxo-4,6,10,14-tetrazatricyclo[9.4.0.0^2,7]pentadeca-1(15),2,4,6,11,13-hexaen-10-yl]acetamide] | 100 to 501 | 15.8 to 39.8 |  | 
8 | Cc1cc2c(c(=O)n1C)-c1ccccc1C(C)C(=O)N2CC(=O)Nc1ccc(Cl)c(F)c1 (single isomer, unassigned) [#219, Enantiomer (7S) or (7R) of N-(4-chloro-3-fluoro-phenyl)-2-[2,3,7-trimethyl-1,6-dioxo-7H-pyrido[4,3-d][3]benzazepin-5-yl]acetamide] | < 15.8 | < 15.8 |  | 
9 | Cc1cc2c(c(Cl)n1)-c1cncnc1C(C)C(=O)N2CC(=O)Nc1ccc(Cl)c(F)c1 (single isomer, unassigned) [#220, Enantiomer (8S) or (8R) of 2-[15-chloro-8,13-dimethyl-9-oxo-4,6,10,14-tetrazatricyclo[9.4.0.0^2,7]pentadeca-1(15),2,4,6,11,13-hexaen-10-yl]-N-(4-chloro-3-fluoro-phenyl)acetamide] | < 15.8 | < 15.8 |  | 
10 | Cc1cc2c(c(F)n1)-c1ccnn1C(C)C(=O)N2CC(=O)Nc1ccc(C(F)F)cc1 (single isomer, unassigned) [#221, Enantiomer (7S) or (7R) of N-[4-(difluoromethyl)phenyl]-2-[14-fluoro-7,12-dimethyl-8-oxo-5,6,9,13-tetrazatricyclo[8.4.0.0^2,6]tetradeca-1(14),2,4,10,12-pentaen-9-yl]acetamide] | 100 to 501 | 39.8 to 100 |  | 

The next lines start with the values.

Row | IC50 (system Xc^− [1]) [nM] | IC50 (system Xc^− [2]) [nM] | pIC50 [^14C] L-Cystine uptake assay (system Xc^− [1]) | pIC50 Cystine-induced glutamate release assay (system Xc^− [2]) | SMILES
11 | < 15.8 | 39.8 to 100 |  |  | Cc1cc2c(c(F)n1)-c1cccnc1[C@@H](CO)C(=O)N2CC(=O)Nc1ccc(C(F)(F)F)cc1 (single isomer, unassigned) [#206, Enantiomer (10S) or (10R) of 2-[(3-fluoro-10-(hydroxymethyl)-5-methyl-9-oxo-4,8,12-triazatricyclo[9.4.0.0^2,7]pentadeca-1(11),2(7),3,5,12,14-hexaen-8-yl]-N-[4-(trifluoromethyl)phenyl]acetamide]
12 | < 15.8 | < 15.8 |  |  | Cc1cc2c(n(C)c1=O)-c1cccnc1[C@@H](C)C(=O)N2CC(=O)Nc1ccc(C(F)(F)F)cc1 (single isomer, unassigned) [#208, Enantiomer (10S) or (10R) of N-[4-(trifluoromethyl)phenyl]-2-[3,5,10-trimethyl-4,9-dioxo-3,8,12-triazatricyclo[9.4.0.0^2,7]pentadeca-1(11),2(7),5,12,14-pentaen-8-yl]acetamide]
13 | 15.8 to 39.8 | 15.8 to 39.8 |  |  | COc1cc2c(c(F)n1)-c1cccnc1[C@@H](C)C(=O)N2CC(=O)Nc1ccc(C(F)(F)F)cc1 (single isomer, unassigned) [#209, Enantiomer (10S) or (10R) of 2-[3-fluoro-5-methoxy-10-methyl-9-oxo-4,8,12-triazatricyclo[9.4.0.0^2,7]pentadeca-1(15),2(7),3,5,11,13-hexaen-8-yl]-N-[4-(trifluoromethyl)phenyl]acetamide]
14 | < 15.8 | 15.8 to 39.8 |  |  | CO[C@H]1C(=O)N(CC(=O)Nc2ccc(C(F)(F)F)cc2)c2cc(C)nc(Cl)c2-c2cccnc21 (single isomer, unassigned) [#210, Enantiomer (10S) or (10R) of 2-[3-chloro-10-methoxy-5-methyl-9-oxo-4,8,12-triazatricyclo[9.4.0.0^2,7]pentadeca-1(11),2(7),3,5,12,14-hexaen-8-yl]-N-[4-(trifluoromethyl)phenyl]acetamide]
15 | 15.8 to 39.8 | < 15.8 |  |  | Cc1cc2c(c(F)n1)-c1cccnc1[C@@H](O)C(=O)N2CC(=O)Nc1ccc(C(F)(F)F)cc1 (single isomer, unassigned) [#211, Enantiomer (10S) or (10R) of 2-[3-fluoro-10-hydroxy-5-methyl-9-oxo-4,8,12-triazatricyclo[9.4.0.0^2,7]pentadeca-1(11),2(7),3,5,12,14-hexaen-8-yl]-N-[4-(trifluoromethyl)phenyl]acetamide]
16 | 15.8 to 39.8 | 15.8 to 39.8 |  |  | Cc1cc2c(c(F)n1)-c1cccnc1C(O)C(=O)N2CC(=O)Nc1ccc(Br)c(Cl)c1 (single isomer, unassigned) [#213, Enantiomer (10S) or (10R) of N-(4-bromo-3-chloro-phenyl)-2-[(10S)-3-fluoro-10-hydroxy-5-methyl-9-oxo-4,8,12-triazatricyclo[9.4.0.0^2,7]pentadeca-1(11),2(7),3,5,12,14-hexaen-8-yl]acetamide]
